The target of test [1] is T1, TRPV1 (Rattus norvegicus, UniProt O35433).
T1 construct: endogenous in cells; host or cells: dissociated nodose ganglion neurons from male Sprague Dawley rats (primary culture, used within 24 h)
Kind of test: Ratiometric Fura-2 calcium imaging in dissociated nodose ganglion (vagal afferent) neurons. Type of test: cell-based. To be noted: for effect on AEA-induced increase in cytosolic calcium: AEA 10 μM; for effect on CAP-induced increase in cytosolic calcium: CAP 100 nM. As to the method:
(§1) Nodose ganglia were isolated bilaterally from rats and mice under a deep plane of anesthesia (Ketamine, 25 mg/100 g; with Xylazine, 2.5 mg/100 g) using aseptic surgical conditions previously reported (Lancaster and Weinreich, [2001]; Simasko et al., [2002]). Following a midline incision in the neck, the musculature was retracted and blunt dissection techniques were used to dissociate the vagal trunk from the common carotid artery. High-magnification optics (10–100× dissecting scope; Leica Microsystems, Buffalo Grove, IL, USA) were utilized to visualize the nodose ganglia and facilitate complete removal. Once isolated, nodose ganglia were desheathed and digested in Ca^2+/Mg^2+ free Hank’s Balanced Salt Solution containing 1 mg/mL of both Dispase II (Hoffmann La Roche) and Collagenase Type 1A (Sigma Aldrich; 90 min at 37°C in 95% air/5% CO2). Neurons were dispersed by gentle trituration through silicanized pipettes, and then washed in Dulbecco’s Modified Eagle’s Medium (DMEM) supplemented with 10% fetal bovine serum (FBS) and 1% penicillin-streptomycin. Dispersed cells were plated onto poly-lysine coated coverslips and maintained in DMEM+10% FBS (37°C in 95% air/5% CO2). Measurements were made within 24 h of isolation.
Intracellular calcium measurements were made with the fluorescent Ca^2+ indicator Fura-2 AM (Molecular Probes, Eugene, OR, USA). Manipulations were made at room temperature in a physiological saline bath (in mM: 140 NaCl, 5 KCl, 2 CaCl2, 1 MgCl2, 6 glucose, 10 HEPES with pH adjusted to 7.4 with NaOH). High K^+ bath (HiK) had 55 mM KCl with an equimolar reduction of NaCl to 90 mM. Neurons on coverslips were loaded with 1 μM Fura-2-AM for 1 h followed by a 15 min wash for de-esterification. COS-7 cells on coverslips were loaded with 1 μM Fura-2-AM for 20 min followed by a 10 min was for de-esterification. Coverslips were mounted into a closed chamber and constantly perfused with physiological bath. Fluorescence was collected using a Nikon Eclipse Ti inverted microscope (Nikon Instruments Inc., Melville, NY, USA) with 40× oil immersion objective, and an Andor Zyla sCMOS digital camera (Andor, South Windsor, CT, USA). For COS-7 cell experiments, TRPV1-GFP+ cells were identified by imaging using an EGFP filter cube (Nikon) prior to Fura-2 imaging. Cells containing Fura-2 were alternatively excited with 340 nm and 380 nm light and fluorescence monitored at 510 nm. Data points were collected with MetaFluor software at 6 s time points. Ratios of fluorescence intensity were converted to Ca^2+ concentrations with a standard curve. Peak calcium responses were quantified, analyzed and compared statistically.
For each experiment, data were collected from three to four nodose ganglion cell cultures or plating of the clonal cells (COS-7). When possible, protocols were designed to be within subject and analyzed using repeated measures ANOVA followed by post hoc comparisons against control. Otherwise unpaired T-tests were used to compare between groups. Parameters of dose-response relationships (EC50, slope, maximum) were determined by sigmoid fit of the data. For antagonist studies (ruthenium red (RR), etc.) all neurons received each treatment and were compared using within subject t-tests. Data are expressed as the average ± SEM. Statistical analysis was performed using SigmaStat software (Systat Software Inc., San Jose, CA, USA).

For test [2], the target named is T1, TRPV1. As to the kind of experiment: Whole-cell patch-clamp current recordings in dissociated nodose ganglion neurons. Type of test: cell-based. As to the method: as §1
Liquid junction potentials were not corrected.

For test [3], the system named is vagal afferent neurons taken from TRPV1 KO mice. As to the kind of experiment: Fura-2 calcium imaging in vagal afferent neurons from TRPV1 KO mice. Type of test: cell-based, mouse. To be noted: any concentration tested, n = 15. The method, then: Male Sprague Dawley rats (120–250 g, Simonsen Laboratories) and male TRPV1 knockout mice (TRPV−/−) (20–30 g) (B6.129X1-Trpv1^tm1Jul/J, Jackson Laboratories) were used under procedures approved by the IACUC at Washington State University. Animals were housed under 12 h light/12 h dark conditions and fed standard pellet chow ad libitum. This study was carried out in accordance with the recommendations of the Guide for the Care and Use of Laboratory Animals, as drafted, updated and published by National Research Council. […]
(§2) Intracellular calcium measurements were made with the fluorescent Ca^2+ indicator Fura-2 AM (Molecular Probes, Eugene, OR, USA). […] Fluorescence was collected using a Nikon Eclipse Ti inverted microscope (Nikon Instruments Inc., Melville, NY, USA) with 40× oil immersion objective, and an Andor Zyla sCMOS digital camera (Andor, South Windsor, CT, USA). […] Cells containing Fura-2 were alternatively excited with 340 nm and 380 nm light and fluorescence monitored at 510 nm. […] Ratios of fluorescence intensity were converted to Ca^2+ concentrations with a standard curve. Peak calcium responses were quantified, analyzed and compared statistically.

The test system of test [4] is recombinant rat TRPV1 (TRPV1-GFP). Kind of test: Fura-2 calcium imaging in COS-7 cells transfected with TRPV1-GFP. In kind it is cell-based. The following applies: COS-7 TRPV1-GFP; AEA n = 453 cells, CAP n = 492 cells. As to the method:
(§3) To generate TRPV1-GFP, the full-length rat TRPV1 coding region (NCBI accession number NM_031982.1) without stop codon was PCR amplified from nodose ganglion cDNA using the primers below and inserted into the HindIII and EcoRI sites of pEGFP-N1 (Clontech).
Clonal COS-7 cells (ATCC® Manassas, VA, USA) were plated on glass coverslips at a density of 250,000 cells per well of a 6-well tissue culture plate. HEK293 cells (ATCC® Manassas, VA, USA) were plated on glass coverslips at a density of 50,000 cells per well of a 12-well plate. COS-7 and HEK293 cells were maintained in DMEM (Invitrogen), 10% FCS (Atlanta Biologicals), 25 units/ml penicillin and 25 μg/ml streptomycin (Sigma). […]
as §2

The subject of test [5] is T2, recombinant rat TRPV1 (TRPV1-GFP).
T2 construct: expressed in transfected cells; host or cells: HEK293 cells (ATCC), transient transfection with lipofectamine 2000
As to the kind of experiment: Whole-cell patch-clamp in HEK293 cells transfected with TRPV1-GFP. Type of test: cell-based. The following applies: for current reversal potential: current-voltage plots, n = 9 cells. As to the method:
as §3
Clonal COS-7 cells (ATCC® Manassas, VA, USA) were plated on glass coverslips at a density of 250,000 cells per well of a 6-well tissue culture plate. HEK293 cells (ATCC® Manassas, VA, USA) were plated on glass coverslips at a density of 50,000 cells per well of a 12-well plate. COS-7 and HEK293 cells were maintained in DMEM (Invitrogen), 10% FCS (Atlanta Biologicals), 25 units/ml penicillin and 25 μg/ml streptomycin (Sigma). Approximately 24 h after plating, media was replaced with DMEM, 10% FCS without pen/strep and cells were transiently transfected overnight. COS-7 cells were transfected with 2 μg of TRPV1-GFP and 2.4 μl lipofectamine 2000 (Invitrogen) per well. HEK293 cells were transfected with 1 μg of TRPV1-GFP and 1.2 μl lipofectamine 2000 per well. COS-7 cells were used for calcium imaging and HEK293 cells were used for electrophysiological recordings 1–2 days following transfection.
Whole cell recordings were performed on dissociated nodose ganglion neurons or transfected HEK293 cells using an inverted Olympus IX50 microscope and on NTS neurons contained in horizontal brainstem slices using an upright Nikon FN1 microscope. For HEK293 cell experiments, TRPV1-GFP+ cells were identified visually using 488 nm light illuminations prior to patching. […]
Whole cell currents taken from isolated nodose ganglion cells or transfected HEK 293 cells were normalized to the membrane capacitance to control for variability in cell size. […] For brainstem slice recordings the digitized waveforms of synaptic events were analyzed using an event detection and analysis program (MiniAnalysis, Synaptosoft, Decatur, GA, USA) for all quantal synaptic currents and Clampfit 10 (Molecular Devices) for all ST-stimulated currents. All events >10 pA were counted for frequency values. […]

In another test the test system is second-order NTS neurons. As to the kind of experiment: Spontaneous glutamate release (sEPSCs) onto second-order NTS neurons in horizontal brainstem slices. Type of test: cell-based, rat.
[6] abbreviates: CAP 1 μM bath application, n = 13.

T1 sequence (O35433 whole entry): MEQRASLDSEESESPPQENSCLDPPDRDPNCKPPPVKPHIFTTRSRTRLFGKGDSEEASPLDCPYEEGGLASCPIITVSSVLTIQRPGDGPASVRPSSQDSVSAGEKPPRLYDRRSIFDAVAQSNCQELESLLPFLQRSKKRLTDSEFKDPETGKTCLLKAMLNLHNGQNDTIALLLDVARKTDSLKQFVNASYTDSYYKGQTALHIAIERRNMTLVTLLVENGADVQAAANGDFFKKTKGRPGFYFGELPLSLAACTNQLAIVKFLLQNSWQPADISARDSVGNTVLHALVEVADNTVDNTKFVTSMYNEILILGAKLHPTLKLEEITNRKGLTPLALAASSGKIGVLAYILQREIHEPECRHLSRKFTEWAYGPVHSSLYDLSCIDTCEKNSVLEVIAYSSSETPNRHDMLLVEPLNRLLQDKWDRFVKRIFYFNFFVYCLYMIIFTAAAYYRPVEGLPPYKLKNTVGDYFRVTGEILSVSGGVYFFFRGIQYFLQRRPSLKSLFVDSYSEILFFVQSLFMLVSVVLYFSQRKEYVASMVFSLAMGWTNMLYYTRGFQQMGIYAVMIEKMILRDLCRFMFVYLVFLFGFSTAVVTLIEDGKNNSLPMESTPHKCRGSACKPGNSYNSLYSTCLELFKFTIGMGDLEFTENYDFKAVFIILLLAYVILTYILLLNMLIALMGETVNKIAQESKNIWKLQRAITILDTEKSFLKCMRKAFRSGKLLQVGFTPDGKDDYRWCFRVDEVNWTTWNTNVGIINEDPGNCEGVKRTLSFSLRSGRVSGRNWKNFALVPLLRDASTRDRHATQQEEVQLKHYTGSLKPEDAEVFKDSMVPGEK

As for `CCCCC/C=C\C/C=C\C/C=C\C/C=C\CCCC(=O)NCCO` [AEA, anandamide], the EC50 was 1.95 ± 0.36 µM at TRPV1 [1] (cultured vagal afferent neurons, Fura-2, sigmoid fit, AM251 present for AEA, read-out: EC50 for Calcium (peak cytosolic calcium)) and 9.8 ± 1.07 µM on TRPV1 [2]. In addition, the “calcium response to 1st AEA exposure (time matched control)” value at TRPV1 [1] (repeated AEA, 1st response, N = 12) is on record as 113 ± 26. For the same compound, the “calcium response to 2nd AEA exposure (time matched control)” value at TRPV1 [1] (repeated AEA, 2nd response, N = 12, P = 0.002 vs 1st) was 43 ± 13. The “effect of addition of extracellular bath calcium on initial inward current” value on TRPV1 [2] (AEA applied in calcium free bath, then calcium containing bath, n = 8) is reported as “significantly reduced”. Besides, the “inward current following removal of bath calcium vs standard bath” value on TRPV1 [2] (saturating AEA 30 μM, bath calcium 2 mM vs calcium free, n = 6) was “significantly larger”. The “cytosolic calcium increase in TRPV1 KO neurons” value in test [3] was “failed to produce a calcium increase”. Also, the “peak calcium response, smaller compared to CAP” value in test [4] is listed as ~ 14%. Besides, the current reversal potential in test [5] turned out to be 5 mV. For the same compound, in test [5] (physiological bath, Vm = −60 mV), the “current change, smaller than CAP” value was ~ 52%. For the same compound, the “change of any sEPSC parameter (frequency, amplitude, decay-time constant)” value with second-order NTS neurons (AEA 30 μM, n = 16) is “failed to produce a significant change”.
In the case of `COc1cccc(NC(=O)/C=C/c2ccc(Cl)cc2)c1` [SB366791], at TRPV1 [1] (SB366791 10 μM pretreatment), the “effect on AEA-induced increase in cytosolic calcium” value is “eliminated” and the “effect on CAP-induced increase in cytosolic calcium” value was “eliminated”.
Turning to `COc1cc(CNC(=O)CCCC/C=C/C(C)C)ccc1O` [CAP, capsaicin], the “effect of removal of bath calcium on average amplitude of induced current” value at TRPV1 [2] (saturating CAP 10 μM, bath calcium 2 mM vs calcium free, n = 8) is given as “did not change”. Further, the current reversal potential in test [5] is on record as 5 mV. Besides, in the test on second-order NTS neurons (setting [6]), the “change of sEPSC event amplitude or decay kinetics” value is “no significant changes” and the “change of spontaneous glutamate release (sEPSC frequency)” value is “dramatic increase”.
Consider `N.N.N.N.N.N.N.N.N.N.N.N.N.N.[Cl-].[Cl-].[Cl-].[Cl-].[Cl-].[Cl-].[O-2].[O-2].[Ru+3].[Ru+3].[Ru+4]` [RR, ruthenium red], for which, at TRPV1 [1] (RR 1 μM pretreatment), the “effect on AEA-induced increase in cytosolic calcium” value is listed as “eliminated” and the “effect on CAP-induced increase in cytosolic calcium” value was “eliminated”.
